Counter-ions that a name gives are not always drawn.
Columns and labels:
[1] = tested on: STZ treated diabetic and weight matched non-diabetic rats (paw pressure withdrawal threshold); conditions: rat, in vivo
[2] = tested on: STZ treated diabetic rats with allodynia; conditions: rat, in vivo
respiratory functions = conditions: dose of 253 nmol/kg; ref our previous work; cited from earlier work
MOR = target: T1, MOR (Rattus norvegicus, UniProt P33535); test: [3H]DAMGO saturation binding in dorsal spinal cord membranes
T1 construct: incubating 50–100 μg of membrane protein of lumbar dorsal horn with 0.1- 4 nM; from tissue; host or cells: rat lumbar (L3-5) dorsal spinal cord / dorsal horn membranes, diabetic and control rats

STZ treated animals = tested on: STZ treated animals; set-up: method as in Yamamoto et al., 2009; conditions: doses up to 10 mg/kg (approximately 31 μmol/kg), 7 weeks following STZ treatment; ref Yamamoto et al., 2009; cited from earlier work
[3] = tested on: STZ treated neuropathic rats; test: Antagonist effect of co-administered NAL-M on the antiallodynic effect of s.c. opioids (DPA); type: in vivo, rat
[4] = tested on: gastric emptying in weight-matched control rats; conditions: 0.1 mg/kg s.c. 30 min before methylcellulose, weight-matched control animals, n = 7
Method: After 20 min the rats were sacrificed and the stomachs were removed after clamping the pylorus and cardia. […] Gastric emptying (%) was calculated as follows: [1 – (absorbance of sample / maximal absorbance)] × 100. Maximal absorbance was measured by processing the test meal alone, as described above.
In a separate experiment, weight match animals were treated either with saline, or with clonidine (0.1 mg/kg), an alpha2 adrenoceptor agonist and well-known inhibitor of gastric emptying, subcutaneously 30 min before the methylcellulose administration.

T1 sequence (P33535 whole entry): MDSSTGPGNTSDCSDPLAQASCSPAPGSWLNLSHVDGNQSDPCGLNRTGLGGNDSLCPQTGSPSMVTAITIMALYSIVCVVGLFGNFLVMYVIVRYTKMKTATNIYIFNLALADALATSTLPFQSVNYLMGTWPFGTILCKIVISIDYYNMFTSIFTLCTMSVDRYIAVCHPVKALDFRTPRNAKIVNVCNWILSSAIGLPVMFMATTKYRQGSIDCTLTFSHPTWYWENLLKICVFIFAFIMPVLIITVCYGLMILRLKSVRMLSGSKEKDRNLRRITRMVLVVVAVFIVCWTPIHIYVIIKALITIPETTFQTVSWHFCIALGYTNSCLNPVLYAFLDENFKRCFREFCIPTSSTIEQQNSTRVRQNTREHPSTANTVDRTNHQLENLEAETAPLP

Row | SMILES | ED30 (effective dose producing 30% effect), diabetic animals ([1]; sc) [nmol/kg] | ED30 (effective dose producing 30% effect), non-diabetic animals ([1]; sc) [nmol/kg] | dose inducing significant antinociceptive action in naïve (weight matched) rats ([1]; sc) [nmol/kg] | time of peak antinociceptive effect ([1]; sc) [min] | antiallodynic effect at 12th week of diabetes at the lowest antiallodynic dose [2] | lowest dose that significantly attenuated the allodynia (lowest antiallodynic dose) ([2]; sc) [nmol/kg] | further results
1 | CO[C@@]12C=C[C@H](OS(=O)(=O)O)[C@@H]3Oc4c(O)ccc5c4[C@@]31CCN(C)[C@@H]2C5 [14-O-MeM6SU, 14-O-methylmorphine-6-O-sulfate] | 434 | 335 | 506 | 60 | produced antiallodynic effects | 253 | times higher potency than morphine in diabetic conditions based on ED30 values [1]: 48 times; antinociceptive action in naïve rats at 253 nmol/kg ([1]; sc): failed to show any significant antinociceptive action; antiallodynic action in diabetic rats, all tested doses ([2]; sc): significantly ameliorated the allodynia; respiratory depression (respiratory functions): no respiratory depression
2 | C[C@@H](NC(=O)[C@@H](N)Cc1ccc(O)cc1)C(=O)NCC(=O)N(C)[C@@H](Cc1ccccc1)C(=O)NCCO [DAMGO, Tyr-D-Ala-Gly-(NMe)Phe-Gly-ol] | – | – | – | – | – | – | Bmax of [3H]DAMGO binding, controls (MOR; dorsal horn of control rats): 23.55 ± 4.36 fmol/mg; Bmax of [3H]DAMGO binding, diabetic rats (MOR; dorsal horn of diabetic rats): 13.11 ± 1.85 fmol/mg
3 | CN1CC[C@]23c4c5ccc(O)c4O[C@H]2[C@@H](O)C=C[C@H]3[C@H]1C5 [Morphine, morphine hydrochloride] | 20692 | 6589 | ≥ 2500 | 30 | produced antiallodynic effects | 40000 | ED30diabetic/ED30non-diabetic [1]: 7; effectiveness of morphine in doses up to 10 mg/kg (STZ treated animals): ineffectiveness
4 | C=CC[N+]1(C)CC[C@]23c4c5ccc(O)c4O[C@H]2C(=O)CC[C@@]3(O)[C@H]1C5 (some centres unmarked) [NAL-M, Naloxone methiodide] | – | – | – | – | – | – | effect of co-administered NAL-M on the antiallodynic action of 14-O-MeM6SU and morphine ([3]; NAL-M 10.6 μmol/kg s.c., co-administered with s.c. 14-O-MeM6SU or morphine): failed to alter the antiallodynic action; effect of NAL-M alone ([3]; NAL-M alone, n = 5, data not shown): no effect
5 | Clc1cccc(Cl)c1N=C1NCCN1 [clonidine, clonidine-hydrochloride] | – | – | – | – | – | – | gastric emptying [4]: 55 ± 2%

Reference: PMC6465774 (Frontiers in Pharmacology, 2019)
